# Experiment: Example 2: phase 3 trial, enavogliflozin 0.3 mg vs dapagliflozin 10 mg once a day for 24 weeks added to metformin in patients with type 2 diabetes (same efficacy, exploratory and safety endpoints)
# Type: in vivo, human
# Method: Subjects who met the inclusion/exclusion criteria were administered a placebo of the clinical trial drug under single-blind (subject blinding) conditions during a 2-week run-in period while continuing to receive metformin. […] The randomized subjects were administered two tablets of the clinical trial drug for each administration group once a day, and then visited the institution at weeks 6, 12, 18, and 24 during the 24-week administration period to conduct efficacy and safety evaluations.
# • 1. Change in HbA1c at week 24 after administration of clinical trial drug compared to Visit 2 (randomization)
# • 1. Change in HbA1c at each time point of weeks 6, 12, and 18 after administration of clinical trial drug compared to Visit 2 (randomization) • 2. Change in FPG at each time point of weeks 6, 12, 18, and 24 after administration of clinical trial drug compared to Visit 2 (randomization) • 3. Proportion of subjects achieving HbA1c<7% at each time point of weeks 6, 12, 18, and 24 after administration of clinical trial drug • 4. Proportion of subjects achieving HbA1c<6.5% at each time point of weeks 6, 12, 18, and 24 after administration of clinical trial drug • 5. Proportion of subjects achieving therapeutic response (HbA1c change (HbA1c at Visit 2-HbA1c at each evaluation time point)>0.5% or HbA1c<7% at each evaluation time point compared to Visit 2 (randomization)) at each time point of weeks 6, 12, 18 and 24 after administration of clinical trial drug
# • 1. Change in fasting c-peptide at each time point of weeks 6, 12, 18, and 24 after administration of clinical trial drug compared to Visit 2 (randomization) • 2. Change in body weight at each time point of weeks 6, 12, 18, and 24 after administration of clinical trial drug compared to Visit 2 (randomization) • 3. Change in fasting lipid concentration (total cholesterol, LDL-C, HDL-C, and triglycerides) at each time point of weeks 6, 12, 18, and 24 after administration of clinical trial drug compared to Visit 2 (randomization) • 4. Changes in systolic or diastolic blood pressure at each time point of weeks 6, 12, 18, and 24 after administration of clinical trial drug compared to Visit 2 (randomization) • 5. Changes in β-cell function and insulin resistance measured by HOMA-β and HOMA-IR at each time point of weeks 6, 12, 18, and 24 after administration of clinical trial drug compared to Visit 2 (randomization) • 6. Changes in renal function-related indicators (UACR, UGCR) measured by UACR at each time point of weeks 6, 12, 18, and 24 after administration of clinical trial drug compared to Visit 2 (randomization) • 7. Changes in obesity-related indicators (adiponectin, leptin) at each time point of weeks 6, 12, 18, and 24 after administration of clinical trial drug compared to Visit 2 (randomization)
# [1] = Baseline, modified per-protocol set 1, enavogliflozin 0.3 mg, dapagliflozin 10 mg
# [2] = Baseline, per-protocol set, enavogliflozin 0.3 mg, dapagliflozin 10 mg
compound,measurement,setting,value
"CCOc1ccc(Cc2cc([C@@H]3O[C@H](CO)[C@@H](O)[C@H](O)[C@H]3O)ccc2Cl)cc1 [Dapagliflozin, reference compound]",Incidence of serious adverse drug reactions,24 weeks,7 case
same,"Adiponectin, Mean (SD)","Baseline, PPS",6.6 µg/mL
same,"Adiponectin, Median","Baseline, PPS",5.94 µg/mL
same,"HOMA-IR, Mean (SD)","Baseline, PPS",3.85
same,"HOMA-IR, Median","Baseline, PPS",3.05
same,"HOMA-β, Mean (SD)","Baseline, PPS",44.44
same,"HOMA-β, Median","Baseline, PPS",38.75
same,"Leptin, Mean (SD)","Baseline, PPS",11.76 ng/mL
same,"Leptin, Median","Baseline, PPS",8.32 ng/mL
same,"UACR, Mean (SD)","Baseline, PPS",57420 mg/kg
same,"UACR, Median","Baseline, PPS",15.50 g/kg
same,"UGCR, Mean (SD)","Baseline, PPS",1.83 mg/mg
same,"UGCR, Median","Baseline, PPS",0.15 mg/mg
same,"HDL-C, Mean (SD)","Baseline, mPPS1",46.90(9.17) mg/dL
same,"HDL-C, Median","Baseline, mPPS1",46.00 mg/dL
same,"LDL-C, Mean (SD)","Baseline, mPPS1",76.16(26.27) mg/dL
same,"LDL-C, Median","Baseline, mPPS1",75.00 mg/dL
same,"Triglycerides, Mean (SD)","Baseline, mPPS1",132.92(75.63) mg/dL
same,"Triglycerides, Median","Baseline, mPPS1",115.00 mg/dL
same,"Diastolic blood pressure, Mean (SD)","Baseline, mPPS2",75.92 mmHg
same,"Diastolic blood pressure, Median","Baseline, mPPS2",75.00 mmHg
same,"Systolic blood pressure, Mean (SD)","Baseline, mPPS2",127.44(14.12) mmHg
same,"Systolic blood pressure, Median","Baseline, mPPS2",127.00 mmHg
same,"fasting Total cholesterol, Mean (SD)",[1],137.87(26.64) mg/dL
same,"fasting Total cholesterol, Median",[1],139.00 mg/dL
same,"FPG, Mean (SD)",[2],149.33 mg/dL
same,"FPG, Median",[2],142.00 mg/dL
same,"HbA1c, Mean (SD)",[2],7.68%
same,"HbA1c, Median",[2],7.49%
same,"body weight, Mean (SD)",[2],70.52(11.81) kg
same,"body weight, Median",[2],69.70 kg
same,"fasting c-peptide, Mean (SD)",[2],0.74(0.23) ng/mL
same,"fasting c-peptide, Median",[2],0.71 ng/mL
same,"Adiponectin change from baseline, ANCOVA LS mean (SE)","Week 6, PPS",0.8 µg/mL
same,"Adiponectin change from baseline, Mean (SD)","Week 6, PPS",0.77 µg/mL
same,"Adiponectin change from baseline, Median","Week 6, PPS",0.51 ng/mL
same,"Adiponectin, Mean (SD)","Week 6, PPS",7.4 µg/mL
same,"Adiponectin, Median","Week 6, PPS",6.36 µg/mL
same,"HOMA-IR change from baseline, ANCOVA LS mean (SE)","Week 6, PPS",−1.31
same,"HOMA-IR change from baseline, Mean (SD)","Week 6, PPS",−1.46
same,"HOMA-IR change from baseline, Median","Week 6, PPS",−1.03
same,"HOMA-IR, Mean (SD)","Week 6, PPS",2.34
same,"HOMA-IR, Median","Week 6, PPS",2.07
same,"HOMA-β change from baseline, ANCOVA LS mean (SE)","Week 6, PPS",−1.79
same,"HOMA-β change from baseline, Mean (SD)","Week 6, PPS",−2.83
same,"HOMA-β change from baseline, Median","Week 6, PPS",1.10
same,"HOMA-β, Mean (SD)","Week 6, PPS",41.10
same,"HOMA-β, Median","Week 6, PPS",42.20
same,"Leptin change from baseline, ANCOVA LS mean (SE)","Week 6, PPS",-1.62 ng/mL
same,"Leptin change from baseline, Mean (SD)","Week 6, PPS",-1.61 ng/mL
same,"Leptin change from baseline, Median","Week 6, PPS",-1.46 ng/mL
same,"Leptin, Mean (SD)","Week 6, PPS",9.85 ng/mL
same,"Leptin, Median","Week 6, PPS",5.51 ng/mL
same,"UACR change from baseline, ANCOVA LS mean (SE)","Week 6, PPS",8.13 g/kg
same,"UACR change from baseline, Mean (SD)","Week 6, PPS",4490 mg/kg
same,"UACR change from baseline, Median","Week 6, PPS",0.00 g/kg
same,"UACR, Mean (SD)","Week 6, PPS",62950 mg/kg
same,"UACR, Median","Week 6, PPS",13.90 g/kg
same,"UGCR change from baseline, ANCOVA LS mean (SE)","Week 6, PPS",50.10 mg/mg
same,"UGCR change from baseline, Mean (SD)","Week 6, PPS",47.54 mg/mg
same,"UGCR change from baseline, Median","Week 6, PPS",42.30 mg/mg
same,"UGCR, Mean (SD)","Week 6, PPS",48.64 mg/mg
same,"UGCR, Median","Week 6, PPS",43.08 mg/mg
same,"HDL-C change from baseline, ANCOVA LS mean (SE)","Week 6, mPPS1",1.60(0.61) mg/dL
same,"HDL-C change from baseline, Mean (SD)","Week 6, mPPS1",1.94(5.62) mg/dL
same,"HDL-C change from baseline, Median","Week 6, mPPS1",1.00 mg/dL
same,"HDL-C, Mean (SD)","Week 6, mPPS1",48.83(10.55) mg/dL
same,"HDL-C, Median","Week 6, mPPS1",48.50 mg/dL
same,"LDL-C change from baseline, ANCOVA LS mean (SE)","Week 6, mPPS1",4.20(1.95) mg/dL
same,"LDL-C change from baseline, Mean (SD)","Week 6, mPPS1",4.87(19.92) mg/dL
same,"LDL-C change from baseline, Median","Week 6, mPPS1",3.00 mg/dL
same,"LDL-C, Mean (SD)","Week 6, mPPS1",81.20(28.87) mg/dL
same,"LDL-C, Median","Week 6, mPPS1",76.50 mg/dL
same,"Triglycerides change from baseline, ANCOVA LS mean (SE)","Week 6, mPPS1",−10.14(7.09) mg/dL
same,"Triglycerides change from baseline, Mean (SD)","Week 6, mPPS1",−11.86(54.93) mg/dL
same,"Triglycerides change from baseline, Median","Week 6, mPPS1",-2.00 mg/dL
same,"Triglycerides, Mean (SD)","Week 6, mPPS1",120.41(53.12) mg/dL
same,"Triglycerides, Median","Week 6, mPPS1",104.50 mg/dL
same,"Diastolic blood pressure change from baseline, ANCOVA LS mean (SE)","Week 6, mPPS2",−1.47 mmHg
same,"Diastolic blood pressure change from baseline, Mean (SD)","Week 6, mPPS2",−1.10 mmHg
same,"Diastolic blood pressure change from baseline, Median","Week 6, mPPS2",0.00 mmHg
same,"Diastolic blood pressure, Mean (SD)","Week 6, mPPS2",74.57 mmHg
same,"Diastolic blood pressure, Median","Week 6, mPPS2",75.00 mmHg
same,"Systolic blood pressure change from baseline, ANCOVA LS mean (SE)","Week 6, mPPS2",−2.71(1.06) mmHg
same,"Systolic blood pressure change from baseline, Mean (SD)","Week 6, mPPS2",−1.98(11.14) mmHg
same,"Systolic blood pressure change from baseline, Median","Week 6, mPPS2",−1.50 mmHg
same,"Systolic blood pressure, Mean (SD)","Week 6, mPPS2",125.24(13.01) mmHg
same,"Systolic blood pressure, Median","Week 6, mPPS2",126.00 mmHg
same,"Adiponectin change from baseline, ANCOVA LS mean (SE)","Week 12, PPS",1.02 µg/mL
same,"Adiponectin change from baseline, Mean (SD)","Week 12, PPS",1.08 µg/mL
same,"Adiponectin change from baseline, Median","Week 12, PPS",0.83 ng/mL
same,"Adiponectin, Mean (SD)","Week 12, PPS",7.76 µg/mL
same,"Adiponectin, Median","Week 12, PPS",6.53 µg/mL
same,"HOMA-IR change from baseline, ANCOVA LS mean (SE)","Week 12, PPS",−1.60
same,"HOMA-IR change from baseline, Mean (SD)","Week 12, PPS",−1.74
same,"HOMA-IR change from baseline, Median","Week 12, PPS",−1.27
same,"HOMA-IR, Mean (SD)","Week 12, PPS",2.17
same,"HOMA-IR, Median","Week 12, PPS",1.89
same,"HOMA-β change from baseline, ANCOVA LS mean (SE)","Week 12, PPS",8.75
same,"HOMA-β change from baseline, Mean (SD)","Week 12, PPS",8.97
same,"HOMA-β change from baseline, Median","Week 12, PPS",4.55
same,"HOMA-β, Mean (SD)","Week 12, PPS",53.77
same,"HOMA-β, Median","Week 12, PPS",45.50
